Results: PubChem BioAssay (NCI)
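Grown in 96-well plates, cells were treated for 48 hours with each compound at five concentrations. Insufficient inhibition: endpoint recorded as highest concentration tested. Abbreviation: GI50, concentration required for 50% inhibition of growth. At the TGI there is no net growth.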

Columns and labels:
Test in all cases: NCI tumour cell line growth inhibition, 48 h
ACHN renal = test system: ACHN renal
OVCAR-3 ovarian = test system: OVCAR-3 ovarian
786-0 renal = test system: 786-0 renal
SF-268 CNS = test system: SF-268 CNS
HCC-2998 colon = test system: HCC-2998 colon
IGROV1 ovarian = test system: IGROV1 ovarian
MDA-MB-435 = test system: MDA-MB-435
LOX IMVI melanoma = test system: LOX IMVI melanoma
KM12 colon = test system: KM12 colon
EKVX NSCLC = test system: EKVX NSCLC
NCI-H522 lung = test system: NCI-H522 lung
HOP-62 NSCLC = test system: HOP-62 NSCLC
TK-10 renal = test system: TK-10 renal
OVCAR-4 ovarian = test system: OVCAR-4 ovarian
HS 578T breast = test system: HS 578T breast
RPMI-8226 leukemia = test system: RPMI-8226 leukemia
HCT-15 colon = test system: HCT-15 colon
COLO 205 colon = test system: COLO 205 colon
CAKI-1 renal = test system: CAKI-1 renal
HT29 colon = test system: HT29 colon
BT-549 breast = test system: BT-549 breast
A549 NSCLC = test system: A549 NSCLC
OVCAR-5 ovarian = test system: OVCAR-5 ovarian
PC-3 prostate = test system: PC-3 prostate
MCF7 breast = test system: MCF7 breast
CCRF-CEM leukemia = test system: CCRF-CEM leukemia
SNB-19 CNS = test system: SNB-19 CNS
HL-60(TB) leukemia = test system: HL-60(TB) leukemia
A498 renal = test system: A498 renal
MALME-3M melanoma = test system: MALME-3M melanoma
OVCAR-8 ovarian = test system: OVCAR-8 ovarian
NCI-H460 lung = test system: NCI-H460 lung
NCI/ADR-RES ovarian = test system: NCI/ADR-RES ovarian
DU-145 prostate = test system: DU-145 prostate
SK-OV-3 ovarian = test system: SK-OV-3 ovarian
HCT-116 colon = test system: HCT-116 colon
SK-MEL-5 melanoma = test system: SK-MEL-5 melanoma
SF-295 CNS = test system: SF-295 CNS
HOP-92 NSCLC = test system: HOP-92 NSCLC
MOLT-4 leukemia = test system: MOLT-4 leukemia
SK-MEL-2 melanoma = test system: SK-MEL-2 melanoma
UO-31 renal = test system: UO-31 renal
MDA-MB-468 breast = test system: MDA-MB-468 breast
SF-539 CNS = test system: SF-539 CNS
MDA-MB-231 breast = test system: MDA-MB-231 breast
UACC-62 melanoma = test system: UACC-62 melanoma
K-562 leukemia = test system: K-562 leukemia
T-47D breast = test system: T-47D breast
U251 CNS = test system: U251 CNS
SN12C renal = test system: SN12C renal
RXF 393 renal = test system: RXF 393 renal
SW-620 colon = test system: SW-620 colon
NCI-H226 lung = test system: NCI-H226 lung
NCI-H23 lung = test system: NCI-H23 lung
UACC-257 melanoma = test system: UACC-257 melanoma
M14 melanoma = test system: M14 melanoma
SNB-75 CNS = test system: SNB-75 CNS
SK-MEL-28 melanoma = test system: SK-MEL-28 melanoma

Structure (SMILES): COc1ccc(-c2cc(C(=O)N=Nc3c(O)[nH]c4ccc(Cl)cc34)c3ccccc3n2)cc1
- GI50 (ACHN renal): 10.1 µM
- TGI (ACHN renal): 23.2 µM
- GI50 (OVCAR-3 ovarian): 11.8 µM
- TGI (OVCAR-3 ovarian): 26.4 µM
- GI50 (786-0 renal): 19.8 µM
- TGI (786-0 renal): 43.7 µM
- GI50 (SF-268 CNS): 16.2 µM
- TGI (SF-268 CNS): 37.6 µM
- GI50 (HCC-2998 colon): 15 µM
- TGI (HCC-2998 colon): 31.4 µM
- GI50 (IGROV1 ovarian): 13.1 µM
- TGI (IGROV1 ovarian): 30.1 µM
- GI50 (MDA-MB-435): 14.8 µM
- TGI (MDA-MB-435): 30.7 µM
- GI50 (LOX IMVI melanoma): 3.23 µM
- TGI (LOX IMVI melanoma): 13.3 µM
- GI50 (KM12 colon): 21.6 µM
- TGI (KM12 colon): 57.3 µM
- GI50 (EKVX NSCLC): 11.4 µM
- TGI (EKVX NSCLC): 27.1 µM
- GI50 (NCI-H522 lung): 16.5 µM
- TGI (NCI-H522 lung): 39.4 µM
- GI50 (HOP-62 NSCLC): 3.96 µM
- TGI (HOP-62 NSCLC): 25.7 µM
- GI50 (TK-10 renal): 23.9 µM
- TGI (TK-10 renal): 42.3 µM
- GI50 (OVCAR-4 ovarian): 13 µM
- TGI (OVCAR-4 ovarian): 43.3 µM
- GI50 (HS 578T breast): 16.6 µM
- TGI (HS 578T breast): 69.2 µM
- GI50 (RPMI-8226 leukemia): 14.7 µM
- TGI (RPMI-8226 leukemia): > 100 µM
- GI50 (HCT-15 colon): 2810 nM
- TGI (HCT-15 colon): 10.2 µM
- GI50 (COLO 205 colon): 15 µM
- TGI (COLO 205 colon): 35.3 µM
- GI50 (CAKI-1 renal): 11.7 µM
- TGI (CAKI-1 renal): 26.4 µM
- GI50 (HT29 colon): 4.63 µM
- TGI (HT29 colon): 31.2 µM
- GI50 (BT-549 breast): 22 µM
- TGI (BT-549 breast): 43 µM
- GI50 (A549 NSCLC): 5.56 µM
- TGI (A549 NSCLC): 31.9 µM
- GI50 (OVCAR-5 ovarian): 12.2 µM
- TGI (OVCAR-5 ovarian): 26.4 µM
- GI50 (PC-3 prostate): 12 µM
- TGI (PC-3 prostate): > 100 µM
- GI50 (MCF7 breast): 5.32 µM
- TGI (MCF7 breast): 28.2 µM
- GI50 (CCRF-CEM leukemia): 3.32 µM
- TGI (CCRF-CEM leukemia): > 100 µM
- GI50 (SNB-19 CNS): 17.4 µM
- TGI (SNB-19 CNS): 32 µM
- GI50 (HL-60(TB) leukemia): 9.57 µM
- TGI (HL-60(TB) leukemia): > 100 µM
- GI50 (A498 renal): 21 µM
- TGI (A498 renal): 36.1 µM
- GI50 (MALME-3M melanoma): 14.4 µM
- TGI (MALME-3M melanoma): 28.5 µM
- GI50 (OVCAR-8 ovarian): 10.2 µM
- TGI (OVCAR-8 ovarian): 35.9 µM
- GI50 (NCI-H460 lung): 11.5 µM
- TGI (NCI-H460 lung): 39.7 µM
- GI50 (NCI/ADR-RES ovarian): 12 µM
- TGI (NCI/ADR-RES ovarian): 47.3 µM
- GI50 (DU-145 prostate): 15.3 µM
- TGI (DU-145 prostate): 29.7 µM
- GI50 (SK-OV-3 ovarian): 15.8 µM
- TGI (SK-OV-3 ovarian): 33.1 µM
- GI50 (HCT-116 colon): 5.3 µM
- TGI (HCT-116 colon): 63.7 µM
- GI50 (SK-MEL-5 melanoma): 15.5 µM
- TGI (SK-MEL-5 melanoma): 30.8 µM
- GI50 (SF-295 CNS): 13.7 µM
- TGI (SF-295 CNS): 29.4 µM
- GI50 (HOP-92 NSCLC): 11.6 µM
- TGI (HOP-92 NSCLC): 32.9 µM
- GI50 (MOLT-4 leukemia): 3.88 µM
- TGI (MOLT-4 leukemia): > 100 µM
- GI50 (SK-MEL-2 melanoma): 19.3 µM
- TGI (SK-MEL-2 melanoma): 35.8 µM
- GI50 (UO-31 renal): 11.5 µM
- TGI (UO-31 renal): 24.1 µM
- GI50 (MDA-MB-468 breast): 6.78 µM
- TGI (MDA-MB-468 breast): 25.9 µM
- GI50 (SF-539 CNS): 15.5 µM
- TGI (SF-539 CNS): 29.8 µM
- GI50 (MDA-MB-231 breast): 5.13 µM
- TGI (MDA-MB-231 breast): 18.1 µM
- GI50 (UACC-62 melanoma): 14.8 µM
- TGI (UACC-62 melanoma): 30.4 µM
- GI50 (K-562 leukemia): 3.14 µM
- TGI (K-562 leukemia): > 100 µM
- GI50 (T-47D breast): 11.8 µM
- TGI (T-47D breast): 42.3 µM
- GI50 (U251 CNS): 3.57 µM
- TGI (U251 CNS): 16.2 µM
- GI50 (SN12C renal): 13.9 µM
- TGI (SN12C renal): 32 µM
- GI50 (RXF 393 renal): 12.1 µM
- TGI (RXF 393 renal): 25.7 µM
- GI50 (SW-620 colon): 3.09 µM
- TGI (SW-620 colon): 19.4 µM
- GI50 (NCI-H226 lung): 14.3 µM
- TGI (NCI-H226 lung): 55.1 µM
- GI50 (NCI-H23 lung): 6.43 µM
- TGI (NCI-H23 lung): 30.8 µM
- GI50 (UACC-257 melanoma): 16.6 µM
- TGI (UACC-257 melanoma): 32.6 µM
- GI50 (M14 melanoma): 11 µM
- TGI (M14 melanoma): 41.9 µM
- GI50 (SNB-75 CNS): 12.9 µM
- TGI (SNB-75 CNS): 27.6 µM
- GI50 (SK-MEL-28 melanoma): 14.7 µM
- TGI (SK-MEL-28 melanoma): 30 µM
